# Assay results from patent US12655116B2, “Substituted isophthalic acid diamides” (Bayer Aktiengesellschaft, priority 2020, dated 2026).
# Legend:
# [1] = tested on: POLCO; assay: Post-emergence herbicidal action against POLCO; type: in vivo, Polygonum convolvulus; details: dosage 20 g/ha
# Experimental: Seeds of monocotyledonous and dicotyledonous weed and crop plants are laid out in sandy loam soil in wood-fiber pots, covered with soil and cultivated in a greenhouse under good growth conditions. 2 to 3 weeks after sowing, the test plants are treated at the one-leaf stage. The compounds of the invention, formulated in the form of wettable powders (WP) or as emulsion concentrates (EC), are then sprayed onto the green parts of the plants in the form of an aqueous suspension or emulsion at a water application rate equivalent to 600 to 800 l/ha, with addition of 0.2% wetting agent. After the test plants have been left to stand in the greenhouse under optimal growth conditions for about 3 weeks, the action of the preparations is assessed visually in comparison to untreated controls (herbicidal action in percent (%): 100% activity=the plants have died, 0% activity=like control plants). […] The tables below illustrate, in an illustrative manner, the post-emergence herbicidal action of the compounds of the invention, the herbicidal activity being stated in percent.
# [2] = tested on: VIOTR; assay: Post-emergence herbicidal action against VIOTR; type: in vivo, Viola tricolor
# Outline: (§1)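 Spray, one-leaf stage: WP or EC compound in water, 600–800 l/ha, 0.2% wetting agent. Plants held about 3 weeks in the greenhouse, then visually rated in percent of kill compared with untreated controls.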
# [3] = tested on: VERPE; assay: Post-emergence herbicidal action against VERPE; type: in vivo, Veronica persica; details: 20 g/ha
# Outline: as §1
# [4] = tested on: VIOTR; assay: Pre-emergence herbicidal action against VIOTR; type: in vivo, Viola tricolor
# Outline: (§2)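 Pre-emergence soil-surface spray of formulated compound (WP or EC; 600 to 800 l/ha; 0.2% wetting agent) over seeds sown in sandy loam. After 3 weeks under greenhouse conditions, damage is estimated visually in percent against untreated plants.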
# [5] = tested on: DIGSA; assay: Post-emergence herbicidal action against DIGSA; type: in vivo, Digitaria sanguinalis; details: Digitaria sanguinalis, 504 h
# Outline: as §1
# [6] = tested on: AVEFA; assay: Pre-emergence herbicidal action against AVEFA; type: in vivo, Avena fatua; details: Avena fatua, 504 h; 80 g/ha, pre-emergence
# Outline: as §2
# [7] = tested on: SETVI; assay: Pre-emergence herbicidal action against SETVI; type: in vivo, Setaria viridis; details: dosage 80 g/ha
# Outline: as §2
# [8] = tested on: SETVI; assay: Post-emergence herbicidal action against SETVI; type: in vivo, Setaria viridis
# Outline: as §1
# [9] = tested on: MATIN; assay: Pre-emergence herbicidal action against MATIN; type: in vivo, Matricaria inodora
# Outline: as §2
# [10] = tested on: ECHCG; assay: Pre-emergence herbicidal action against ECHCG; type: in vivo, Echinochloa crus-galli; details: 80 g/ha
# Outline: as §2
# [11] = tested on: ABUTH; assay: Pre-emergence herbicidal action against ABUTH; type: in vivo, Abutilon theophrasti
# Outline: as §2
# [12] = tested on: POLCO; assay: Pre-emergence herbicidal action against POLCO; type: in vivo, Polygonum convolvulus; details: dosage 80 g/ha
# Outline: as §2
# [13] = tested on: MATIN; assay: Post-emergence herbicidal action against MATIN; type: in vivo, Matricaria inodora
# Outline: as §1
# [14] = tested on: AMARE; assay: Post-emergence herbicidal action against AMARE; type: in vivo, Amaranthus retroflexus; details: 20 g/ha, visual assessment about 3 weeks after treatment, 100% = plants have died, 0% = like control plants
# Outline: as §1
# [15] = tested on: AMARE; assay: Pre-emergence herbicidal action against AMARE; type: in vivo, Amaranthus retroflexus
# Outline: as §2
# [16] = tested on: ABUTH; assay: Post-emergence herbicidal action against ABUTH; type: in vivo, Abutilon theophrasti; details: visual assessment about 3 weeks after treatment vs untreated controls
# Outline: as §1
# [17] = tested on: VERPE; assay: Pre-emergence herbicidal action against VERPE; type: in vivo, Veronica persica; details: dosage 80 g/ha
# Outline: as §2
# [18] = tested on: PHBPU; assay: Pre-emergence herbicidal action against PHBPU; type: in vivo, Pharbitis purpurea; details: dosage 80 g/ha
# Outline: as §2
# [19] = tested on: DIGSA; assay: Pre-emergence herbicidal action against DIGSA; type: in vivo, Digitaria sanguinalis
# Outline: as §2
# [20] = tested on: ECHCG; assay: Post-emergence herbicidal action against ECHCG; type: in vivo, Echinochloa crus-galli
# Outline: as §1
# [21] = tested on: PHBPU; assay: Post-emergence herbicidal action against PHBPU; type: in vivo, Pharbitis purpurea; details: dosage 20 g/ha
# Outline: as §1
# [22] = Tripleurospermum inodorum, 504 h, dosage 20 g/ha
# [23] = 80 g/ha, scored visually after 3 weeks vs untreated controls (100% = plants have died, 0% = like control plants)
compound,measurement,setting,value
Cn1nnnc1NC(=O)c1ccc(C(F)F)c(C(=O)NC2CC2)c1C1CC1 [Example 1-306],pest or weed control at 20 g/ha,"[1]; Fallopia convolvulus, 504 h",80%
same,pest or weed control at 20 g/ha,"[2]; Viola tricolor, 504 h, 20 g/ha",90%
same,pest or weed control at 20 g/ha,"[3]; Veronica persica, 504 h",90%
same,pest or weed control at 20 g/ha,"[4]; Viola tricolor, 504 h, dosage 20 g/ha",100%
same,pest or weed control at 80 g/ha,"[4]; Viola tricolor, 504 h, dosage 80 g/ha",100%
same,pest or weed control at 5 g/ha,[5]; 5 g/ha,90%
same,pest or weed control at 20 g/ha,[5]; 20 g/ha,90%
same,pest or weed control at 80 g/ha,[6],80%
same,pest or weed control at 80 g/ha,"[7]; Setaria viridis, 504 h",100%
same,pest or weed control at 5 g/ha,"[8]; Setaria viridis, 504 h, dosage 5 g/ha",90%
same,pest or weed control at 20 g/ha,"[8]; Setaria viridis, 504 h, dosage 20 g/ha",90%
same,pest or weed control at 20 g/ha,[9]; [22],100%
same,pest or weed control at 80 g/ha,"[9]; Tripleurospermum inodorum, 504 h, dosage 80 g/ha",100%
same,pest or weed control at 80 g/ha,"[10]; Echinochloa crus-galli, 504 h",100%
same,pest or weed control at 80 g/ha,"[11]; Abutilon theophrasti, 504 h, 80 g/ha, scored visually after 3 weeks vs untreated controls (100% = plants have died, 0% = like control plants)",100%
same,pest or weed control at 20 g/ha,"[11]; Abutilon theophrasti, 504 h, dosage 20 g/ha, scored visually after 3 weeks vs untreated controls, 100% = plants have died, 0% = like control plants, read-out: Pre-emergence action against ABUTH (herbicidal activity in percent)",100%
same,pest or weed control at 80 g/ha,"[12]; Fallopia convolvulus, 504 h",90%
same,pest or weed control at 5 g/ha,"[13]; Tripleurospermum inodorum, 504 h, dosage 5 g/ha",90%
same,pest or weed control at 20 g/ha,[13]; [22],90%
same,pest or weed control at 20 g/ha,"[14]; Amaranthus retroflexus, 504 h",100%
same,pest or weed control at 20 g/ha,"[15]; Amaranthus retroflexus, 504 h, 20 g/ha, scored visually after 3 weeks vs untreated controls, 100% = plants have died, 0% = like control plants",100%
same,pest or weed control at 80 g/ha,"[15]; Amaranthus retroflexus, 504 h, 80 g/ha, scored visually after 3 weeks vs untreated controls, 100% = plants have died, 0% = like control plants",100%
same,pest or weed control at 5 g/ha,"[16]; Abutilon theophrasti, 504 h, dosage 5 g/ha",80%
same,pest or weed control at 20 g/ha,"[16]; Abutilon theophrasti, 504 h, dosage 20 g/ha",80%
same,pest or weed control at 80 g/ha,"[17]; Veronica persica, 504 h",90%
same,pest or weed control at 80 g/ha,"[18]; Ipomoea purpurea, 504 h",90%
same,pest or weed control at 20 g/ha,"[19]; Digitaria sanguinalis, 504 h, dosage 20 g/ha",100%
same,pest or weed control at 80 g/ha,"[19]; Digitaria sanguinalis, 504 h, dosage 80 g/ha",100%
same,pest or weed control at 5 g/ha,"[20]; Echinochloa crus-galli, 504 h, dosage 5 g/ha",90%
same,pest or weed control at 20 g/ha,"[20]; Echinochloa crus-galli, 504 h, dosage 20 g/ha",90%
CCn1nnnc1NC(=O)c1ccc(C(F)F)c(C(=O)NC)c1C1CC1 [Example 2-304],Post-emergence action against POLCO in %,[1],80%
same,Post-emergence action against VIOTR in %,[2]; 5 g/ha,80%
same,Post-emergence action against VIOTR in %,[2]; 20 g/ha,90%
same,Post-emergence action against VERPE in %,[3],90%
same,Pre-emergence action against VIOTR in %,[4]; dosage 20 g/ha,90%
same,Pre-emergence action against VIOTR in %,[4]; dosage 80 g/ha,100%
same,Post-emergence action against PHBPU in %,[21],90%
same,Pre-emergence action against SETVI in %,[7],90%
same,Post-emergence action against SETVI in %,[8]; dosage 5 g/ha,80%
same,Post-emergence action against SETVI in %,[8]; dosage 20 g/ha,80%
same,Pre-emergence action against MATIN in %,[9]; dosage 20 g/ha,90%
same,Pre-emergence action against MATIN in %,[9]; dosage 80 g/ha,100%
same,Pre-emergence action against ECHCG in %,[10],90%
same,Pre-emergence action against ABUTH (herbicidal activity),[11]; [23],100%
same,Pre-emergence action against ABUTH (herbicidal activity in percent),"[11]; dosage 20 g/ha, scored visually after 3 weeks vs untreated controls, 100% = plants have died, 0% = like control plants",100%
same,Pre-emergence action against POLCO in %,[12],80%
same,Post-emergence action against MATIN in %,[13]; dosage 5 g/ha,90%
same,Post-emergence action against MATIN in %,[13]; dosage 20 g/ha,90%
same,Post-emergence action at 20 g/ha against AMARE in %,[14],100%
same,Pre-emergence action against AMARE in %,"[15]; 20 g/ha, scored visually after 3 weeks vs untreated controls, 100% = plants have died, 0% = like control plants",100%
same,Pre-emergence action against AMARE in %,[15]; [23],100%
same,Post-emergence action against ABUTH in %,[16]; dosage 5 g/ha,90%
same,Post-emergence action against ABUTH in %,[16]; dosage 20 g/ha,90%
same,Pre-emergence action against VERPE in %,[17],100%
same,Pre-emergence action against PHBPU in %,[18],90%
same,Pre-emergence action against DIGSA in %,[19]; dosage 20 g/ha,90%
same,Pre-emergence action against DIGSA in %,[19]; dosage 80 g/ha,100%
same,Post-emergence action against ECHCG in %,[20]; dosage 20 g/ha,80%
